The assay deals with BDF1 mice, M5076 sarcoma s.c., survival/tumor T/C. In words: NCI In Vivo Anticancer Drug Screen. Data for tumor model Sarcoma M5076 (subcutaneous) in B6D2F1 (BDF1) mice. As for the experimental part: The antitumor activity of compounds was measured in mice bearing transplantable tumors. Survival or tumor size were measured and the results are expressed as the measurement made in the treated group (T) divided by the measurement made in the vehicle treated control group (C). The tumor model used in this assay is Sarcoma M5076 (subcutaneous) in B6D2F1 (BDF1) mice

Structures are written as SMILES. “And” between values parts separate entries of the source, which are not always exact repeats. Identical values can stand only once. Results filed as inconclusive are left out.

As to `CC1(C)N=C(N)N=C(N)N1c1ccc(CCCCc2ccc(S(=O)(=O)F)cc2Cl)c(Cl)c1`, the T/C runs as follows: (endpoint: median survival time, dose: 1.8 mg/kg/injection, schedule: Q01DX005 (iv), vehicle: other, higher = longer survival) 97 % of control; (endpoint: median survival time, dose: 3.7 mg/kg/injection, schedule: Q01DX001 (iv), vehicle: other, higher = longer survival) 107 % of control; (endpoint: median survival time, dose: 3.7 mg/kg/injection, schedule: Q01DX005 (iv), vehicle: other, higher = longer survival) 97 % of control; (endpoint: median survival time, dose: 5.18 mg/kg/injection, schedule: Q01DX009 (ip), vehicle: other, higher = longer survival) 162 % of control; (endpoint: median survival time, dose: 5.4 mg/kg/injection, schedule: Q01DX009 (ip), vehicle: other, higher = longer survival) 151 % of control; (endpoint: median survival time, dose: 7.5 mg/kg/injection, schedule: Q01DX001 (iv), vehicle: other, higher = longer survival) 91 % of control. The T/C is 114 % of control (endpoint: median survival time, dose: 7.5 mg/kg/injection, schedule: Q01DX005 (iv), vehicle: other, higher = longer survival); 151 % of control (endpoint: median survival time, dose: 8.0 mg/kg/injection, schedule: Q01DX009 (ip), vehicle: other, higher = longer survival); 176 % of control (endpoint: median survival time, dose: 8.64 mg/kg/injection, schedule: Q01DX009 (ip), vehicle: other, higher = longer survival); 150 % of control (endpoint: median survival time, dose: 10.0 mg/kg/injection, schedule: Q01DX009 (ip), vehicle: saline with Tween-80, higher = longer survival); 190 % of control (endpoint: median survival time, dose: 14.4 mg/kg/injection, schedule: Q01DX009 (ip), vehicle: other, higher = longer survival); 110 % of control (endpoint: median survival time, dose: 15.0 mg/kg/injection, schedule: Q01DX001 (ip), vehicle: other, higher = longer survival). The T/C is 124 % of control (endpoint: median survival time, dose: 15.0 mg/kg/injection, schedule: Q01DX005 (ip), vehicle: other, higher = longer survival); 89 % of control (endpoint: median survival time, dose: 15.0 mg/kg/injection, schedule: Q01DX009 (oral), vehicle: other, higher = longer survival); 155 % of control (endpoint: median survival time, dose: 20.0 mg/kg/injection, schedule: Q01DX009 (ip), vehicle: other, higher = longer survival); 177 % of control (endpoint: median survival time, dose: 20.0 mg/kg/injection, schedule: Q01DX009 (ip), vehicle: saline with Tween-80, higher = longer survival); 168 % of control (endpoint: median survival time, dose: 27.0 mg/kg/injection, schedule: Q01DX009 (ip), vehicle: saline with Tween-80, higher = longer survival); 103 % of control (endpoint: median survival time, dose: 30.0 mg/kg/injection, schedule: Q01DX001 (ip), vehicle: other, higher = longer survival). For the same compound, the T/C (endpoint: median survival time, dose: 30.0 mg/kg/injection, schedule: Q01DX001 (oral), vehicle: other, higher = longer survival) was 110 % of control; the T/C (endpoint: median survival time, dose: 30.0 mg/kg/injection, schedule: Q01DX005 (oral), vehicle: other, higher = longer survival) is 97 % of control; the T/C (endpoint: median survival time, dose: 30.0 mg/kg/injection, schedule: Q01DX009 (ip), vehicle: other, higher = longer survival) was 169 % of control; the T/C (endpoint: median survival time, dose: 30.0 mg/kg/injection, schedule: Q01DX009 (oral), vehicle: other, higher = longer survival) was 120 % of control; the T/C (endpoint: median survival time, dose: 40.0 mg/kg/injection, schedule: Q01DX009 (ip), vehicle: saline with Tween-80, higher = longer survival) was 163 % of control and 217 % of control and 232 % of control; the T/C (endpoint: median survival time, dose: 60.0 mg/kg/injection, schedule: Q01DX001 (ip), vehicle: other, higher = longer survival) was 111 % of control. The T/C was 97 % of control (endpoint: median survival time, dose: 60.0 mg/kg/injection, schedule: Q01DX001 (oral), vehicle: other, higher = longer survival); 117 % of control (endpoint: median survival time, dose: 60.0 mg/kg/injection, schedule: Q01DX005 (oral), vehicle: other, higher = longer survival); 204 % of control and 239 % of control (endpoint: median survival time, dose: 60.0 mg/kg/injection, schedule: Q01DX009 (ip), vehicle: saline with Tween-80, higher = longer survival); 114 % of control (endpoint: median survival time, dose: 60.0 mg/kg/injection, schedule: Q01DX009 (oral), vehicle: other, higher = longer survival); 255 % of control (endpoint: median survival time, dose: 62.0 mg/kg/injection, schedule: Q01DX009 (ip), vehicle: saline with Tween-80, higher = longer survival); 224 % of control (endpoint: median survival time, dose: 89.0 mg/kg/injection, schedule: Q01DX009 (ip), vehicle: saline with Tween-80, higher = longer survival). Moreover, the T/C (endpoint: median survival time, dose: 120.0 mg/kg/injection, schedule: Q01DX001 (oral), vehicle: other, higher = longer survival) was 97 % of control; the T/C (endpoint: median survival time, dose: 120.0 mg/kg/injection, schedule: Q01DX005 (oral), vehicle: other, higher = longer survival) was 116 % of control; the T/C (endpoint: median survival time, dose: 120.0 mg/kg/injection, schedule: Q01DX009 (oral), vehicle: other, higher = longer survival) is 104 % of control; the T/C (endpoint: median survival time, dose: 240.0 mg/kg/injection, schedule: Q01DX001 (ip), vehicle: other, higher = longer survival) is 123 % of control; the T/C (endpoint: median survival time, dose: 240.0 mg/kg/injection, schedule: Q01DX001 (oral), vehicle: other, higher = longer survival) was 109 % of control; the T/C (endpoint: median survival time, dose: 240.0 mg/kg/injection, schedule: Q01DX005 (oral), vehicle: other, higher = longer survival) was 117 % of control. Further, the T/C is, setting by setting: (endpoint: median survival time, dose: 240.0 mg/kg/injection, schedule: Q01DX009 (oral), vehicle: other, higher = longer survival) 110 % of control; (endpoint: median survival time, dose: 480.0 mg/kg/injection, schedule: Q01DX001 (oral), vehicle: other, higher = longer survival) 100 % of control; (endpoint: median survival time, dose: 480.0 mg/kg/injection, schedule: Q01DX005 (oral), vehicle: other, higher = longer survival) 109 % of control; (endpoint: median survival time, dose: 480.0 mg/kg/injection, schedule: Q01DX009 (oral), vehicle: other, higher = longer survival) 124 % of control.
As for `OC(C1CO1)C(O)C1CO1` (stereo not drawn), the T/C runs as follows: (endpoint: mean tumor weight, dose: 1.0 mg/kg/injection, schedule: Q02DX011 (ip), vehicle: saline, higher = larger tumour) 58 % of control; (endpoint: mean tumor weight, dose: 2.0 mg/kg/injection, schedule: Q02DX011 (ip), vehicle: saline, higher = larger tumour) 10 % of control and 12 % of control; (endpoint: median survival time, dose: 2.0 mg/kg/injection, schedule: Q01DX009 (ip), vehicle: saline, higher = longer survival) 122 % of control; (endpoint: median tumor weight (est.), dose: 1.0 mg/kg/injection, schedule: Q02DX011 (ip), vehicle: saline, higher = larger tumour) 67 % of control; (endpoint: median tumor weight (est.), dose: 2.0 mg/kg/injection, schedule: Q01DX009 (ip), vehicle: saline, higher = larger tumour) 29 % of control; (endpoint: median tumor weight (est.), dose: 2.0 mg/kg/injection, schedule: Q02DX011 (ip), vehicle: saline, higher = larger tumour) 1 % of control and 8 % of control.
Turning to `CN(C)c1nc(N(C)C)nc(N(C)C)n1`, the T/C is, setting by setting: (endpoint: median survival time, dose: 44.0 mg/kg/injection, schedule: Q04DX006 (ip), vehicle: saline with Tween-80, higher = longer survival) 97 % of control; (endpoint: median survival time, dose: 88.0 mg/kg/injection, schedule: Q04DX006 (ip), vehicle: saline with Tween-80, higher = longer survival) 108 % of control; (endpoint: median survival time, dose: 176.0 mg/kg/injection, schedule: Q02DX033 (ip), vehicle: saline with Tween-80, higher = longer survival) 189 % of control; (endpoint: median survival time, dose: 176.0 mg/kg/injection, schedule: Q04DX006 (ip), vehicle: saline with Tween-80, higher = longer survival) 120 % of control; (endpoint: median survival time, dose: 352.0 mg/kg/injection, schedule: Q04DX006 (ip), vehicle: saline with Tween-80, higher = longer survival) 112 % of control; (endpoint: median tumor weight (est.), dose: 30.0 mg/kg/injection, schedule: Q02DX011 (ip), vehicle: saline with Tween-80, higher = larger tumour) 110 % of control. Besides, the T/C runs as follows: (endpoint: median tumor weight (est.), dose: 60.0 mg/kg/injection, schedule: Q02DX011 (ip), vehicle: saline with Tween-80, higher = larger tumour) 54 % of control; (endpoint: median tumor weight (est.), dose: 120.0 mg/kg/injection, schedule: Q02DX011 (ip), vehicle: saline with Tween-80, higher = larger tumour) 17 % of control.
As for `Cc1cc(-c2ccc(NC(=O)c3cccc([N+](=O)[O-])c3)c(C)c2)ccc1NC(=O)c1cccc([N+](=O)[O-])c1`, the T/C was 107 % of control (endpoint: median survival time, dose: 50.0 mg/kg/injection, schedule: Q01DX009 (ip), vehicle: saline with Tween-80, higher = longer survival); 102 % of control (endpoint: median survival time, dose: 100.0 mg/kg/injection, schedule: Q01DX009 (ip), vehicle: saline with Tween-80, higher = longer survival); 102 % of control (endpoint: median survival time, dose: 200.0 mg/kg/injection, schedule: Q01DX009 (ip), vehicle: saline with Tween-80, higher = longer survival); 90 % of control (endpoint: median tumor weight (est.), dose: 50.0 mg/kg/injection, schedule: Q01DX009 (ip), vehicle: saline with Tween-80, higher = larger tumour); 83 % of control (endpoint: median tumor weight (est.), dose: 100.0 mg/kg/injection, schedule: Q01DX009 (ip), vehicle: saline with Tween-80, higher = larger tumour); 71 % of control (endpoint: median tumor weight (est.), dose: 200.0 mg/kg/injection, schedule: Q01DX009 (ip), vehicle: saline with Tween-80, higher = larger tumour).
In the case of `COc1cc2cc3c4cc(OC)c(OC)cc4cc[n+]3c(C)c2cc1OC` (tested in a mixture with another compound), the T/C by setting is: (endpoint: mean tumor weight, dose: 37.5 mg/kg/injection, schedule: Q02DX011 (ip), vehicle: saline, higher = larger tumour) 64 % of control; (endpoint: mean tumor weight, dose: 75.0 mg/kg/injection, schedule: Q02DX011 (ip), vehicle: saline, higher = larger tumour) 45 % of control; (endpoint: mean tumor weight, dose: 150.0 mg/kg/injection, schedule: Q02DX011 (ip), vehicle: saline, higher = larger tumour) 13 % of control.
`Cc1[nH]c(=O)[nH]c(=O)c1N(CCF)CCCl`: the T/C reads like this: (endpoint: median survival time, dose: 4.0 mg/kg/injection, schedule: Q01DX009 (ip), vehicle: saline with Tween-80, higher = longer survival) 104 % of control; (endpoint: median survival time, dose: 8.0 mg/kg/injection, schedule: Q01DX009 (ip), vehicle: saline with Tween-80, higher = longer survival) 120 % of control; (endpoint: median tumor weight (est.), dose: 4.0 mg/kg/injection, schedule: Q01DX009 (ip), vehicle: saline with Tween-80, higher = larger tumour) 101 % of control; (endpoint: median tumor weight (est.), dose: 8.0 mg/kg/injection, schedule: Q01DX009 (ip), vehicle: saline with Tween-80, higher = larger tumour) 47 % of control and 57 % of control; (endpoint: median tumor weight (est.), dose: 16.0 mg/kg/injection, schedule: Q01DX009 (ip), vehicle: saline with Tween-80, higher = larger tumour) 8 % of control and 17 % of control.

The record behind these values is PubChem BioAssay AID288 (DTP/NCI, 2004).
